Where two headings read alike, the source gives them in different places.
How the values were obtained:
[1] = In vivo microdialysis of unbound gepotidacin in blood, muscle and prostate of healthy and E. coli infected rats; set-up: species or system rat; conditions: for Kp uu: rat, iv, 20 mg/kg
Text: The example herein describes microdialysis experiments in E. coli infected rats to measure tissue distribution of unbound gepotidacin. In vivo microdialysis experiments simultaneously determined unbound gepotidacin concentrations in rat prostate, muscle, and blood. It is important to understand the tissue distribution of unbound gepotidacin, especially in the target prostate tissue, since gepotidacin must diffuse through capillary membranes to reach the prostate. An assumption that the plasma concentration of gepotidacin represents a suitable surrogate of prostate concentrations, without prostate tissue confirmation, may lead to erroneous conclusions, especially since the pathogen is localized in the prostate.
(§1) An Escherichia coli prostatitis model in rats was obtained as follows. Four days before microdialysis, rats (n=11) were infected with Escherichia coli ATCC 13441 in the prostatic urethra, to induce E. coli prostatitis, at an inoculum of 10^7 CFU/rat. Healthy rats (n=9) were not infected with E. coli as control.
(§2) The day before the experiment, two CMA/20 probes (membrane length 10 mm, Harvard Apparatus, Courtaboeuf France) were inserted into right jugular vein and the right hind leg muscle of healthy and infected rats under anesthesia and analgesic treatment. In parallel, catheters were inserted into the femoral vein and artery to administer gepotidacin intravenously (IV) and to collect blood samples for determination of total plasma gepotidacin concentrations, respectively. The rats were allowed to recover consciousness, and food was withdrawn for 12 hours.
(§3) On the day of the experiment, healthy control and infected rats were re-anesthetized and a CMA/20 Elite probe (membrane length 4 mm) was inserted into the prostate. All probes were connected to infusion pumps and perfused with Ringer containing a calibrator (((R)-1-((4-(((2,3-dihydro-[1,4]oxathiino[2,3-c]pyridin-7-yl)methyl)amino)piperidin-1-yl)methyl)-1,2-dihydro-3H,8H-2a,5,8a-triazaacenaphthylene-3,8-dione; […]) at a flow rate of 0.5 μL/min with Ringer. After an equilibration period, gepotidacin was administered by IV bolus at a dose of 20 mg/kg. Blood, muscle, and prostate dialysates were collected every 10 minutes for 90 minutes, and then every 30 minutes […]. Seven blood samples were also collected for analysis of gepotidacin pharmacokinetics in total plasma. Gepotidacin concentrations were measured in dialysates and in plasma by LC-MS/MS.
Pharmacokinetic (PK) parameters were determined in each individual rat by a noncompartmental approach according to standard procedures and with the software Phoenix WinNonLin 7. (Certara, Princeton, NJ) Total unbound body clearance (CLu) was calculated as CLu=dose/AUCu,blood, where AUCu,blood is the total area under the unbound blood concentration-versus-time curve from zero to infinity, equal to the area under the curve from zero to the last measured concentration AUC0-last,u,blood added to the area under the curve from the last measured concentration to infinity AUClast-infinity,u,blood. AUC0-last,u,blood was calculated by linear-logarithmic trapezoidal method. AUClast-infinity,u,blood the area remaining under the curve after the last measured concentration, C(last)u,blood was determined from C(last)u,blood/keblood. The elimination rate constant (keblood) and its corresponding half-life (t1/2,blood) were estimated by least squares fit of the data points (log concentration-time). The linear-logarithmic trapezoidal method was used to compute the area under the unbound blood concentration-versus-time moment curve AUMC0-last,u,blood from zero to the last measured concentration. AUMClast-infinity,u,blood the area remaining under the curve after the last measured concentration was determined from: tlast×C(last)u,blood/keblood+C(last)u,blood/keblood^2. The mean residence time from zero to infinity, MRT0-infinity was determined from AUMC0-infinity,u,blood/AUC0-infinity,u,blood. […]

[2] = Total plasma pharmacokinetics of gepotidacin in healthy and E. coli infected rats; format: in vivo, rat; conditions: IV bolus 20 mg/kg; for Vd / half-life / clearance: rat, plasma, iv, 20 mg/kg; for clearance: read-out: CLt,plasma
Text: as §1, §2, §3
Pharmacokinetic (PK) parameters were determined in each individual rat by a noncompartmental approach according to standard procedures and with the software Phoenix WinNonLin 7. (Certara, Princeton, NJ) Total unbound body clearance (CLu) was calculated as CLu=dose/AUCu,blood, where AUCu,blood is the total area under the unbound blood concentration-versus-time curve from zero to infinity, equal to the area under the curve from zero to the last measured concentration AUC0-last,u,blood added to the area under the curve from the last measured concentration to infinity AUClast-infinity,u,blood. AUC0-last,u,blood was calculated by linear-logarithmic trapezoidal method. AUClast-infinity,u,blood the area remaining under the curve after the last measured concentration, C(last)u,blood was determined from C(last)u,blood/keblood. The elimination rate constant (keblood) and its corresponding half-life (t1/2,blood) were estimated by least squares fit of the data points (log concentration-time). The linear-logarithmic trapezoidal method was used to compute the area under the unbound blood concentration-versus-time moment curve AUMC0-last,u,blood from zero to the last measured concentration. AUMClast-infinity,u,blood the area remaining under the curve after the last measured concentration was determined from: tlast×C(last)u,blood/keblood+C(last)u,blood/keblood^2. The mean residence time from zero to infinity, MRT0-infinity was determined from AUMC0-infinity,u,blood/AUC0-infinity,u,blood. The volume of distribution (VSSu) was obtained from MRT0-infinity×CLu. The AUCu and t1/2,u in tissues were also estimated by the same procedure.

[3] = healthy rats (n = 9), blood, unbound, IV bolus 20 mg/kg
[4] = healthy rats (n = 9), muscle, unbound, IV bolus 20 mg/kg
[5] = healthy rats (n = 9), prostate, unbound, IV bolus 20 mg/kg
[6] = infected rats (n = 11; E. coli ATCC 13441 prostatitis), blood, unbound, IV bolus 20 mg/kg
[7] = infected rats (n = 11; E. coli ATCC 13441 prostatitis), muscle, unbound, IV bolus 20 mg/kg
[8] = infected rats (n = 11; E. coli ATCC 13441 prostatitis), prostate, unbound, IV bolus 20 mg/kg
[9] = prostatitis (infected) rats, FIG. 1C-1D
[10] = infected rats (n = 11; E. coli ATCC 13441 prostatitis)

Half-life and Cmax,u in blood, muscle, and prostate, comparison of tissues ([1]; healthy control rats): similar | Unbound concentration time profile in blood ([1]; healthy control rats, FIG. 1A, 1B): biphasic | CLu (total unbound body clearance) [1, 3]: 44.4 ± 5.1 mL/min/kg | Cmax,u [1, 3]: 10300 ± 2600 ng/mL | VSSu (volume of distribution) [1, 3]: 3.967 ± 0.557 L/kg | t1/2,u [1, 3]: 1.3 ± 0.317 h | Cmax,u [1, 4]: 8600 ± 2500 ng/mL | t1/2,u [1, 4]: 1.3 ± 0.15 h | Cmax,u [1, 5]: 8200 ± 1900 ng/mL | t1/2,u [1, 5]: 1.13 ± 0.183 h | Cmax in prostate, infected compared to healthy rats ([1]; infected rats): slightly lower compared to healthy rats | CLu (total unbound body clearance) [1, 6]: 35.8 ± 5.5 mL/min/kg | Cmax,u [1, 6]: 12300 ± 1900 ng/mL | VSSu (volume of distribution) [1, 6]: 3.344 ± 0.59 L/kg | t1/2,u [1, 6]: 1.43 ± 0.383 h | Cmax,u [1, 7]: 9900 ± 3800 ng/mL | t1/2,u [1, 7]: 1.28 ± 0.367 h | Cmax,u [1, 8]: 6600 ± 2700 ng/mL | t1/2,u [1, 8]: 1.38 ± 0.15 h | Muscle/blood and prostate/blood AUCu ratios, infected compared to healthy rats ([1]; infected vs healthy rats, p>0.05, Wilcoxon test, R software): not significantly different | Unbound concentration time profile in blood [1, 9]: biphasic | Unbound concentrations in prostate relative to blood [1, 9]: slightly lower than in blood | Kp uu ([1]; muscle, healthy rats (n = 9), unbound, IV bolus 20 mg/kg, read-out: AUCu muscle/blood): 1.06 ± 0.17 | Kp uu ([1]; muscle, infected rats (n = 11; E. coli ATCC 13441 prostatitis), unbound, IV bolus 20 mg/kg, read-out: AUCu muscle/blood): 1.03 ± 0.13 | Kp uu ([1]; muscle/blood and prostate/blood, healthy control rats, muscle/blood and prostate/blood, read-out: AUCu ratios): ~1 | Kp uu ([1]; prostate, healthy rats (n = 9), unbound, IV bolus 20 mg/kg, read-out: AUCu prostate/blood): 0.89 ± 0.17 | Kp uu ([1]; prostate, infected rats (n = 11; E. coli ATCC 13441 prostatitis), unbound, IV bolus 20 mg/kg, read-out: AUCu prostate/blood): 0.78 ± 0.21 | AUC ([2]; healthy rats (n = 9)): 6750 ± 950 ng·h/mL | AUC [2, 10]: 7870 ± 2380 ng·h/mL | Vd ([2]; healthy rats (n = 9)): 4.26 ± 0.851 L/kg | half-life ([2]; healthy rats (n = 9)): 1.2 ± 0.19 h | clearance ([2]; healthy rats (n = 9)): 50.3 ± 7.1 mL/min/kg | Vd [2, 10]: 4.02 ± 0.997 L/kg | half-life [2, 10]: 1.27 ± 0.165 h | clearance [2, 10]: 45.6 ± 12.8 mL/min/kg
Compound: O=c1ccc2ncc(=O)n3c2n1C[C@H]3CN1CCC(NCc2cc3c(cn2)OCCC3)CC1 [gepotidacin, (2R)-2-({4-[(3,4-dihydro-2/pyrano[2,3-c]pyridin-6-ylmethyl)amino]-1-piperidinyl}methyl)-1,2-dihydro-3H,8/2a,5,8a-triazaacenaphthylene-3,8-dione]
Concentration profiles in prostate and muscle relative to blood ([1]; healthy control rats, with the exception of the first time point, FIG. 1A): almost superimposed with blood concentrations | Half-lives, comparison of blood, muscle, and prostate ([1]; infected rats): the same between blood, muscle, and prostate
